pIC50: −log10 of the molar value.
Molecular target: T1, hTLR9 (Homo sapiens, UniProt Q9NR96)
T1 sequence (Q9NR96 26-1032): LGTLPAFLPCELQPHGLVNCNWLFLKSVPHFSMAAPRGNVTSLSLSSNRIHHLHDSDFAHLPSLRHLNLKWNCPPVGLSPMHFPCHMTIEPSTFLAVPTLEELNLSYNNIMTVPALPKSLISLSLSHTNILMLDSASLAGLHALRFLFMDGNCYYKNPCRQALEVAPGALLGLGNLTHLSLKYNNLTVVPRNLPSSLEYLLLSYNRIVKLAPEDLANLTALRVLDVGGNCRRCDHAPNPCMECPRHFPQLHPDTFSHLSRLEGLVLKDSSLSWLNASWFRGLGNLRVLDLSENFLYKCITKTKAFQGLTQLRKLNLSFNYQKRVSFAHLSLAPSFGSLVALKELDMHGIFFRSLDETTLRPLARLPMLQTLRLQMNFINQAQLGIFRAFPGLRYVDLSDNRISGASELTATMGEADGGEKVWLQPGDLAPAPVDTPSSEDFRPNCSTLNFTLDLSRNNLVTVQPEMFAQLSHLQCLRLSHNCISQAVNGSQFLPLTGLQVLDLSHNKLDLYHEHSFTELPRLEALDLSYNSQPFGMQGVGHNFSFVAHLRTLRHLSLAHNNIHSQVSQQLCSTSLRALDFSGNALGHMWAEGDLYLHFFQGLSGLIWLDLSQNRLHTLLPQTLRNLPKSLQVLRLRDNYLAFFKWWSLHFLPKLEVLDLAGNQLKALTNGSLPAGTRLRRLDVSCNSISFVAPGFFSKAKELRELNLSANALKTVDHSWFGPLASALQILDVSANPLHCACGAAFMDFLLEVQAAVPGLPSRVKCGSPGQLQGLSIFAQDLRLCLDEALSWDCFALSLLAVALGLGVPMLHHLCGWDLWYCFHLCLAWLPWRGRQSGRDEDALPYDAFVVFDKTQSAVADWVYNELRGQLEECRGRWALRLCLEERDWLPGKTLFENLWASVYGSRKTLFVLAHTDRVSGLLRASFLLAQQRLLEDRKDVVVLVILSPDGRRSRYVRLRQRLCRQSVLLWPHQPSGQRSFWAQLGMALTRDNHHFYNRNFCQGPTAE
Experiment: HEK293-Blue-hTLR-9 cells assay (SEAP reporter, ODN2006 stimulation)
Type: cell-based
Parameters: host or cells: HEK293 (HEK-Blue hTLR9)
Settings: HEK293-Blue-hTLR9 cells, ODN2006, 20 hrs; read-out: HEK/hTLR9 IC50
Description: HEK293-Blue-hTLR-9 Cells Assay:
A stable HEK293-Blue-hTLR-9 cell line was purchased from InvivoGen (Cat. #: hkb-htlr9, San Diego, Calif., USA). These cells were originally designed for studying the stimulation of human TLR9 by monitoring the activation of NF-κB. A SEAP (secreted embryonic alkaline phosphatase) reporter gene was placed under the control of the IFN-β minimal promoter fused to five NF-κB and AP-1-binding sites. The SEAP was induced by activating NF-κB and AP-1 via stimulating HEK-Blue hTLR9 cells with TLR9 ligands. Therefore the reporter expression was declined by TLR9 antagonist under the stimulation of a ligand, such as ODN2006 (Cat. #: tlrl-2006-1, Invivogen, San Diego, Calif., USA), for incubation of 20 hrs. The cell culture supernatant SEAP reporter activity was determined using QUANTI-Blue™ kit (Cat. #: rep-qb1, Invivogen, San Diego, Calif., USA) at a wavelength of 640 nm, a detection medium that turns purple or blue in the presence of alkaline phosphatase.
HEK293-Blue-hTLR9 cells were incubated at a density of 250,000˜450,000 cells/mL in a volume of 170 μL in a 96-well plate in Dulbecco's Modified Eagle's medium (DMEM) containing 4.5 g/L glucose, 50 U/mL penicillin, […], 2 mM L-glutamine, 10% (v/v) heat-inactivated fetal bovine serum with addition of 20 μL test compound in a serial dilution in the presence of final DMSO at 1% and 10 μL of 20 uM ODN2006 in above DMEM, perform incubation under 37° C. in a CO2 incubator for 20 hrs. Then 20 μL of the supernatant from each well was incubated with 180 μL Quanti-blue substrate solution at 37° C. for 2 h and the absorbance was read at 620-655 nm using a spectrophotometer. The signaling pathway that TLR9 activation leads to downstream NF-κB activation has been widely accepted, and therefore similar reporter assay was modified for evaluating TLR9 antagonist.

Compound | pIC50
COC1CN(c2nccc(N3CCN(C[C@H]4CN(c5ccc(C#N)c6ncccc56)C[C@@H](C)O4)CC3)n2)CC1N (stereo in doubt) [Example 93, 5-[(2S,6R)-2-[[4-[2-[(3R,4S)-3-amino-4-methoxy-pyrrolidin-1-yl]pyrimidin-4-yl]piperazin-1-yl]methyl]-6-methyl-morpholin-4-yl]quinoline-8-carbonitrile] | 7.51
C[C@@H]1CN(c2ccc(C#N)c3ncccc23)C[C@H](CN2CCC(c3cccc(N4CCNCC4)c3)C2)O1 (stereo partly drawn) [Example 1, 5-[(2R,6S)-2-methyl-6-[[3-(3-piperazin-1-ylphenyl)pyrrolidin-1-yl]methyl]morpholin-4-yl]quinoline-8-carbonitrile] | 6.87
C[C@@H]1CN(c2ccc(C#N)c3ncccc23)C[C@H](CN2CCC(c3cccc(C4CCNCC4)c3)CC2)O1 [Example 2, 5-[(2R,6S)-2-methyl-6-[[4-[3-(4-piperidyl)phenyl]-1-piperidyl]methyl]morpholin-4-yl]quinoline-8-carbonitrile] | 7.13
C[C@@H]1CN(c2ccc(C#N)c3ncccc23)C[C@H](CN2CC(c3ccc(N4CCNCC4)cc3)C2)O1 [Example 3, 5-[(2R,6S)-2-methyl-6-[[3-(4-piperazin-1-ylphenyl)azetidin-1-yl]methyl]morpholin-4-yl]quinoline-8-carbonitrile] | 7.28
C[C@@H]1CN(c2ccc(C#N)c3ncccc23)C[C@H](CN2CC(c3cccc(N4CCNCC4)c3)C2)O1 [Example 4, 5-[(2R,6S)-2-methyl-6-[[3-(3-piperazin-1-ylphenyl)azetidin-1-yl]methyl]morpholin-4-yl]quinoline-8-carbonitrile] | 7.17
C[C@@H]1CN(c2ccc(C#N)c3ncccc23)C[C@H](CN2CCN(c3ccc(CN)cc3)CC2)O1 [Example 5, 5-[(2S,6R)-2-[[4-[4-(aminomethyl)phenyl]piperazin-1-yl]methyl]-6-methyl-morpholin-4-yl]quinoline-8-carbonitrile] | 6.70
C[C@@H]1CN(c2ccc(C#N)c3ncccc23)C[C@H](CN2CCN(c3cnc(N4CCNCC4)cn3)CC2)O1 [Example 6, 5-[(2R,6S)-2-methyl-6-[[4-(5-piperazin-1-ylpyrazin-2-yl)piperazin-1-yl]methyl]morpholin-4-yl]quinoline-8-carbonitrile] | 6.92
COc1cc(N2CCN(C[C@H]3CN(c4ccc(C#N)c5ncccc45)C[C@@H](C)O3)CC2)nc(N2CCNCC2)n1 [Example 91, 5-[(2S,6R)-2-[[4-(6-methoxy-2-piperazin-1-yl-pyrimidin-4-yl)piperazin-1-yl]methyl]-6-methyl-morpholin-4-yl]quinoline-8-carbonitrile] | 6.99
CO[C@@H]1CN(c2nccc(N3CCN(C[C@H]4CN(c5ccc(C#N)c6ncccc56)C[C@@H](C)O4)CC3)n2)C[C@@H]1N [Example 92, 5-[(2S,6R)-2-[[4-[2-[(3S,4R)-3-amino-4-methoxy-pyrrolidin-1-yl]pyrimidin-4-yl]piperazin-1-yl]methyl]-6-methyl-morpholin-4-yl]quinoline-8-carbonitrile] | 7.38
C[C@@H]1CN(c2ccc(C#N)c3ncccc23)C[C@H](CN2CCN(c3ncc(F)c(N4CCNCC4)n3)CC2)O1 [Example 94, 5-[(2S,6R)-2-[[4-(5-fluoro-4-piperazin-1-yl-pyrimidin-2-yl)piperazin-1-yl]methyl]-6-methyl-morpholin-4-yl]quinoline-8-carbonitrile] | 7.29
C[C@@H]1CN(c2ccc(C#N)c3ncccc23)C[C@H](CN2CCN(c3ccnc(N4C[C@@H](F)[C@@H](N)C4)n3)CC2)O1 [Example 95, 5-[(2S,6R)-2-[[4-[2-[(3S,4R)-3-amino-4-fluoro-pyrrolidin-1-yl]pyrimidin-4-yl]piperazin-1-yl]methyl]-6-methyl-morpholin-4-yl]quinoline-8-carbonitrile] | 7.51
C[C@@H]1CN(c2ccc(C#N)c3ncccc23)C[C@H](CN2CCN(c3ccnc(N4C[C@@H](N)[C@H](F)C4)n3)CC2)O1 [Example 96, 5-[(2S,6R)-2-[[4-[2-[(3R,4R)-3-amino-4-fluoro-pyrrolidin-1-yl]pyrimidin-4-yl]piperazin-1-yl]methyl]-6-methyl-morpholin-4-yl]quinoline-8-carbonitrile] | 6.96

Other lines, results leading:

pIC50 | Compound
7.47 | CO[C@H]1CN(c2ccnc(N3CCN(C[C@H]4CN(c5ccc(C#N)c6ncccc56)C[C@@H](C)O4)CC3)n2)C[C@@H]1N [Example 97, 5-[(2S,6R)-2-[[4-[4-[(3S,4S)-3-amino-4-methoxy-pyrrolidin-1-yl]pyrimidin-2-yl]piperazin-1-yl]methyl]-6-methyl-morpholin-4-yl]quinoline-8-carbonitrile]
7.31 | CO[C@@H]1CN(c2nccc(N3CCN(C[C@H]4CN(c5ccc(C#N)c6nccnc56)C[C@@H](C)O4)CC3)n2)C[C@H]1N [Example 98, 8-[(2S,6R)-2-[[4-[2-[(3R,4R)-3-amino-4-methoxy-pyrrolidin-1-yl]pyrimidin-4-yl]piperazin-1-yl]methyl]-6-methyl-morpholin-4-yl]quinoxaline-5-carbonitrile]
7.20 | CO[C@H]1CN(c2nccc(N3CCN(C[C@H]4CN(c5ccc(C#N)c6nccnc56)C[C@@H](C)O4)CC3)n2)C[C@@H]1N [Example 99, 8-[(2S,6R)-2-[[4-[2-[(3S,4S)-3-amino-4-methoxy-pyrrolidin-1-yl]pyrimidin-4-yl]piperazin-1-yl]methyl]-6-methyl-morpholin-4-yl]quinoxaline-5-carbonitrile]
7.51 | C[C@@H]1CN(c2ccc(C#N)c3ncccc23)C[C@H](CN2CCN(c3ccnc(N4C[C@@H](N)[C@@H](F)C4)n3)CC2)O1 [Example 101, 5-[(2S,6R)-2-[[4-[2-[(3R,4S)-3-amino-4-fluoro-pyrrolidin-1-yl]pyrimidin-4-yl]piperazin-1-yl]methyl]-6-methyl-morpholin-4-yl]quinoline-8-carbonitrile]
7.10 | Cc1cnc(N2CCN(C[C@H]3CN(c4ccc(C#N)c5ncccc45)C[C@@H](C)O3)CC2)nc1N1CCNCC1 [Example 102, 5-[(2R,6S)-2-methyl-6-[[4-(5-methyl-4-piperazin-1-yl-pyrimidin-2-yl)piperazin-1-yl]methyl]morpholin-4-yl]quinoline-8-carbonitrile]
7.00 | C[C@@H]1CN(c2ccc(C#N)c3ncccc23)C[C@H](CN2CCN(c3ccnc(N4C[C@H]5NCCO[C@@H]5C4)n3)CC2)O1 [Example 103, 5-[(2S,6R)-2-[[4-[2-[(4aR,7aR)-3,4,4a,5,7,7a-hexahydro-2H-pyrrolo[3,4-b][1,4]oxazin-6-yl]pyrimidin-4-yl]piperazin-1-yl]methyl]-6-methyl-morpholin-4-yl]quinoline-8-carbonitrile]
7.15 | CO[C@H]1CN(c2cc(C)nc(N3CCN(C[C@H]4CN(c5ccc(C#N)c6nccnc56)C[C@@H](C)O4)CC3)n2)C[C@@H]1N [Example 104, 8-[(2S,6R)-2-[[4-[4-[(3S,4S)-3-amino-4-methoxy-pyrrolidin-1-yl]-6-methyl-pyrimidin-2-yl]piperazin-1-yl]methyl]-6-methyl-morpholin-4-yl]quinoxaline-5-carbonitrile]
